Structures are written as SMILES.

Here are results for 1 compound from patent US8765920B2, “Tyrosine bioconjugation through aqueous Ene-like reactions” (priority 2009, dated 2014).

A short description of the data set: Stability study of modified p-cresol under thermal conditions. The following applies: 120° C. for 1 h. In kind it is physicochemical. The protocol:
Compound 4, the product of the reaction of p-cresol and PTAD, was subjected to both strongly acidic and basic conditions for 24 hours at room temperature or high temperature (120° C.) for 1 hr. […] These conditions are extremely harsh for a peptide or protein.
The relative stability of the C—N bond formed in the products was studied using p-cresol as a model phenol. As shown in Scheme 11, p-cresol was reacted with PTAD in tetrahydrofuran in the presence of sodium hydride to provide adduct in 75% isolated yield. Compound 8f was subjected to both strong acidic and basic conditions for 24 hours at room temperature or high temperature (120° C.) for 1 h.
Compound 4 (4.00 mg, 0.0141 mmol) was heated at 120° C. for 1 h according to the literature. The recovery of 4 was 4.00 mg (quant.).
Compound 23 (4.00 mg, 0.0141 mmol) was heated at 120° C. for 1 h according to literature. The recovery of 23 was 4.00 mg (quant.).

Take `Cc1ccc(O)c(-n2[nH]c(=O)n(-c3ccccc3)c2=O)c1` [Compound 4, 1-(2-hydroxy-5-methylphenyl)-4-phenyl-1,2,4-triazolidine-3,5-dione]: the “decomposition by 1H NMR after heating” value was “wasn't detected”.
